For twelve compounds, GI50 and TGI results are on record in PubChem BioAssay (NCI).

Where “and” joins values, the source holds several entries; their conditions need not be identical. Equal values may be shown once.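 Each compound was tested at five concentrations against cells in 96-well plates for 48 hours. The concentration for 50% growth inhibition is given as GI50. The concentration for full growth arrest is given as TGI.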

Test systems include HL-60(TB) leukemia; M14 melanoma; OVCAR-8 ovarian; HOP-62 NSCLC; SK-OV-3 ovarian; OVCAR-4 ovarian; SNB-75 CNS; 786-0 renal; UACC-257 melanoma; RXF 393 renal.
Test in all cases: NCI tumour cell line growth inhibition, 48 h

`CN(CCNc1ccc(C(=N)N)cc1)c1ccc(C(=N)N)cc1`: the GI50 in the experiment with HL-60(TB) leukemia was 49.4 µM; in the experiment on M14 melanoma, 57 µM; with OVCAR-8 ovarian, 50 µM; with HOP-62 NSCLC, 50 µM; with SK-OV-3 ovarian it was 34.5 µM; with OVCAR-4 ovarian it was 66 µM. Also, the GI50 with SNB-75 CNS was 27.6 µM; in the experiment with 786-0 renal it was over 100 µM; in the experiment on UACC-257 melanoma, 35.1 µM. Besides, the TGI in the experiment on HL-60(TB) leukemia, in the experiment on M14 melanoma, with OVCAR-8 ovarian, in the experiment with HOP-62 NSCLC, with SK-OV-3 ovarian and in the experiment with OVCAR-4 ovarian was over 100 µM throughout. In addition, the TGI in the experiment on SNB-75 CNS, in the experiment with 786-0 renal and in the experiment with UACC-257 melanoma was over 100 µM each time.
As for `Cc1cc2c(=O)cc(-c3ccc(C(=O)O)cc3)oc2c(C(N)=O)c1C`, the TGI in the experiment with M14 melanoma, with OVCAR-8 ovarian, in the experiment with HOP-62 NSCLC, in the experiment with SK-OV-3 ovarian, with OVCAR-4 ovarian and with SNB-75 CNS was over 100 µM throughout. Further, the TGI in the experiment with 786-0 renal and in the experiment with UACC-257 melanoma was over 100 µM in each case.
Turning to `CCOC(=O)Cc1csc(Nc2nc(O)c(C3=c4ccccc4=NC3=O)s2)n1`, the GI50 in the experiment on RXF 393 renal is 41.3 µM; in the experiment on OVCAR-8 ovarian, 43.7 µM; with HOP-62 NSCLC, 20.6 µM; in the experiment on SK-OV-3 ovarian it was 31.1 µM; in the experiment on OVCAR-4 ovarian, 42.3 µM; with 786-0 renal, 21.7 µM. In addition, the GI50 in the experiment on UACC-257 melanoma is 76.9 µM. Further, the TGI with RXF 393 renal is over 100 µM; in the experiment with OVCAR-8 ovarian, over 100 µM; in the experiment on HOP-62 NSCLC it was 39.5 µM; in the experiment on SK-OV-3 ovarian, 67.6 µM; with OVCAR-4 ovarian, over 100 µM; in the experiment with 786-0 renal, 43.2 µM. In the experiment on UACC-257 melanoma, this compound had a TGI of over 100 µM.
As to `COC(=O)c1oc([N+](=O)[O-])c(-c2ccccc2)c1-c1ccccc1`, the TGI in the experiment on M14 melanoma, in the experiment with OVCAR-8 ovarian, with HOP-62 NSCLC, in the experiment on SK-OV-3 ovarian, with OVCAR-4 ovarian and in the experiment on SNB-75 CNS was over 100 µM each time. In addition, the TGI in the experiment on 786-0 renal and in the experiment on UACC-257 melanoma was over 100 µM in each case.
For `Cc1cn2c(/C=N/NC3=NCCN3)c(-c3ccc(Cl)c([N+](=O)[O-])c3)nc2s1`, the GI50 in the experiment on M14 melanoma is 1.06 µM; in the experiment with OVCAR-8 ovarian it was 1.12 µM; with HOP-62 NSCLC, 1.71 µM; with SK-OV-3 ovarian, 1.53 µM; in the experiment on 786-0 renal, 0.908 µM; with UACC-257 melanoma it was 1.6 µM. The TGI with M14 melanoma was 2.17 µM; with OVCAR-8 ovarian, 2.45 µM; with HOP-62 NSCLC, 7.17 µM; with SK-OV-3 ovarian it was 3.68 µM; in the experiment on 786-0 renal, 2.5 µM; in the experiment with UACC-257 melanoma it was 7.24 µM.
Take `Fc1ccc(-c2nn3c(COc4ccccc4Cl)nnc3s2)cc1Oc1ccccc1`: the GI50 is over 100 µM in the experiment on RXF 393 renal; 24.4 µM in the experiment with M14 melanoma; 49.9 µM in the experiment on OVCAR-8 ovarian; 19.4 µM in the experiment with HOP-62 NSCLC; 72.2 µM with OVCAR-4 ovarian; 30.7 µM with SNB-75 CNS. The GI50 was 21.3 µM with 786-0 renal and over 100 µM in the experiment on UACC-257 melanoma. The TGI is over 100 µM in the experiment with RXF 393 renal; 54.7 µM in the experiment with M14 melanoma; over 100 µM in the experiment on OVCAR-8 ovarian; 40.1 µM with HOP-62 NSCLC; over 100 µM with OVCAR-4 ovarian; 93.7 µM with SNB-75 CNS. Besides, the figures for the TGI in the experiment on 786-0 renal and in the experiment on UACC-257 melanoma were 46.7 µM and over 100 µM, respectively.
With `O=C(CSc1nc(-c2ccccc2)c(-c2ccccc2)[nH]1)N/N=C/c1ccc([N+](=O)[O-])cc1`, the TGI in the experiment on HL-60(TB) leukemia is 71.1 µM; with M14 melanoma, 31.1 µM; in the experiment on OVCAR-8 ovarian, 25.4 µM; in the experiment with HOP-62 NSCLC it was 33.7 µM; with SK-OV-3 ovarian, 35.3 µM; with OVCAR-4 ovarian, 58.8 µM. Also, the TGI in the experiment on SNB-75 CNS is 47.8 µM; in the experiment with 786-0 renal, 30.5 µM; in the experiment with UACC-257 melanoma, 36 µM.
In the case of `Nc1cc2c(c3ccccc13)C(CCl)CN2C(=O)c1cc2cc(NC(=O)c3cc4ccccc4o3)ccc2[nH]1` (configuration not stated), the GI50 with HL-60(TB) leukemia, in the experiment on OVCAR-8 ovarian and in the experiment with 786-0 renal was over 0.11 µM in each case. Moreover, the TGI was under 0.11 µM with HL-60(TB) leukemia; 0.00407 µM and < 0.11 µM with OVCAR-8 ovarian; under 0.11 µM in the experiment with HOP-62 NSCLC; 5.5 µM in the experiment on SK-OV-3 ovarian; over 1100 µM with 786-0 renal.
Consider `CN1C[C@@H]2CC(=O)CC[C@@H]2C[C@H]1C#N`, for which the TGI with HL-60(TB) leukemia, in the experiment on M14 melanoma, in the experiment with OVCAR-8 ovarian, with HOP-62 NSCLC, in the experiment with SK-OV-3 ovarian and in the experiment with OVCAR-4 ovarian was over 100 µM throughout. Besides, the TGI in the experiment on SNB-75 CNS, in the experiment with 786-0 renal and with UACC-257 melanoma was over 100 µM in each case.
On to `O=C(O)COc1ccc2c3c1C(=O)CCC3CO2` (configuration not stated), for which the TGI in the experiment on HL-60(TB) leukemia, in the experiment on M14 melanoma, with OVCAR-8 ovarian, in the experiment with HOP-62 NSCLC, in the experiment on SK-OV-3 ovarian and in the experiment on OVCAR-4 ovarian was over 100 µM throughout. The TGI with 786-0 renal and in the experiment with UACC-257 melanoma was over 100 µM each time.
On to `OC1CCC(COC(c2ccccc2)(c2ccccc2)c2ccccc2)O1` (configuration not stated), for which the TGI with HL-60(TB) leukemia was 39.7 µM; in the experiment on M14 melanoma, 32.7 µM; with OVCAR-8 ovarian it was 35.8 µM; with HOP-62 NSCLC, 33.9 µM; in the experiment with SK-OV-3 ovarian, 36.6 µM; in the experiment on SNB-75 CNS, 26.5 µM. The TGI amounted to 35.2 µM in the experiment on 786-0 renal and 34.1 µM with UACC-257 melanoma.
In the case of `O=C(O)c1ccc(NCn2nc(-c3ccccc3O)oc2=S)cc1O`, the GI50 is over 100 µM in the experiment with RXF 393 renal; over 100 µM with HL-60(TB) leukemia; over 100 µM in the experiment with M14 melanoma; over 100 µM with OVCAR-8 ovarian; over 100 µM in the experiment on HOP-62 NSCLC; 95.2 µM with 786-0 renal. The GI50 in the experiment on UACC-257 melanoma was over 100 µM. Also, the TGI in the experiment on RXF 393 renal, in the experiment with HL-60(TB) leukemia, with M14 melanoma, in the experiment on OVCAR-8 ovarian, in the experiment with HOP-62 NSCLC and in the experiment with 786-0 renal was over 100 µM each time. The same compound showed a TGI in the experiment on UACC-257 melanoma of over 100 µM.
